Data as given in patent US8946237B2, “Pyrazolo[1,5-A]pyrimidines as mark inhibitors” (Merck Sharp & Dohme Corp., priority 2010, dated 2015).

Assays:
[1] = Mean Arterial Pressure in anesthetized dogs; assay type: in vivo
From the text: The compounds of Formula I disclosed herein are also useful as blood pressure lowering agents and thus useful for the treating hypertension. Arterial hypertension has been identified as a strong causal factor in cardiovascular disease. An embodiment of the invention encompasses a method for treating or preventing cardiovascular disease comprising administering to a patient in need thereof a compound of Formula I, either as a single agent or in combination with other standard of care agents. It is postulated that compounds of the invention lower blood pressure by interfering with binding of tau and other microtubule associated proteins (MAP) to microtubules. Inhibiting the depolymerization of tubulin is the proposed cause of vasorelaxation leading to blood pressure lowering. […] Example 4 disclosed herein lowered Mean Arterial Pressure by 25% when it was dosed at 5 mg/kg cumulatively over the course of 90 minutes in anesthetized dogs. Example 9 disclosed herein lowered Mean Arterial Pressure by 89% when it was dosed at 10 mg/kg cumulatively over the course of 90 minutes in anesthetized dogs.

MARK3 = biological target: T1, MARK3 (Homo sapiens, UniProt P27448); assay: MARK 3 Assay (HTRF, Cdc25C biotinylated peptide substrate); assay type: biochemical; conditions: 10 μM ATP, 10 nM recombinant MARK3 enzyme
T1 construct: purchased University of Dundee
Protocol: MARK3 activity was assayed in vitro using a Cdc25C biotinylated peptide substrate (Cell Signalling Technologies). The phosphopeptide product was quantitated using a Homogenous Time-Resolved Fluorescence (HTRF) assay system (Park et al., 1999, Anal. Biochem. 269:94-104). The reaction mixture contained 50 mM HEPES/Tris-HCl, pH 7.4; 10 mM NaCl, 5 mM MgCl2, 0.2 mM NaVO4, 5 mM β-glycerol phosphate, 0.1% Tween-20, 2 mM dithiothreitol, 0.1% BSA, 10 μM ATP, 1 μM peptide substrate, and 10 nM recombinant MARK3 enzyme (University of Dundee) in a final volume of 12 μL. The buffer additionally contained protease inhibitor cocktail (Roche EDTA-free, 1 tab per 50 ml). The kinase reaction was incubated for 2 hours at 25° C., and then terminated with 3 μl Stop/Detection Buffer (50 mM HEPES, pH 7.0, 16.6 mM EDTA, 0.5M KF, 0.1% Tween-20, 0.1% BSA, 2 μg/ml SLX^ent 665 (CISBIO), and 2 μg/mL Eu^3+ cryptate label antibody (CISBIO)). The reaction was allowed to equilibrate overnight at 0° C., and relative fluorescent units were read on an HTRF enabled plate reader (e.g. TECAN GENios Pro).
Inhibitor compounds were assayed in the reaction described above to determine compound IC50s. Aliquots of compound dissolved in DMSO were added to the reaction wells in a third-log dilution series covering a range of 1 nM to 10 μM. Relative phospho substrate formation, read as HTRF fluorescence units, was measured over the range of compound concentrations and a titration curve generated.

T1 sequence (P27448 whole entry, species assumed): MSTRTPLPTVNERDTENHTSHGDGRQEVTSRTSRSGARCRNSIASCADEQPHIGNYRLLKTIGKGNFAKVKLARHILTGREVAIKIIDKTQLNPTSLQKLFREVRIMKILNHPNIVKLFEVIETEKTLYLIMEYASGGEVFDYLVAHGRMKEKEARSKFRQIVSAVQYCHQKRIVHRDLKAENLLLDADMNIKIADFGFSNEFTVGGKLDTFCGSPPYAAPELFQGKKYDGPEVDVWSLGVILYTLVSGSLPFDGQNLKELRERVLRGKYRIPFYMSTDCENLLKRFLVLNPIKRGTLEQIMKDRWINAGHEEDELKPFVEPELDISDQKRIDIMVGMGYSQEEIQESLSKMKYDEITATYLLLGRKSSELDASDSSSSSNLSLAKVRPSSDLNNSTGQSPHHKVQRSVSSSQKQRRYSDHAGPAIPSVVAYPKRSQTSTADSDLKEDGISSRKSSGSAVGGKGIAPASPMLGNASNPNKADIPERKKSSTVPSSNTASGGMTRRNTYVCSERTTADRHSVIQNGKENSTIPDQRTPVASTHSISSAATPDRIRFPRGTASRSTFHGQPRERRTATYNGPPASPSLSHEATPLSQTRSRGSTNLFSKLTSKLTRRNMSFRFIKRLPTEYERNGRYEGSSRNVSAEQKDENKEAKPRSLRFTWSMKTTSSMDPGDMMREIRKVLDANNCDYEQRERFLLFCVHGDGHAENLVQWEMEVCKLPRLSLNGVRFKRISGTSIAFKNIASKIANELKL

Row | IC50 (MARK3) | SMILES | lowered Mean Arterial Pressure ([1]; 5 mg/kg cumulatively over the course of 90 minutes) | lowered Mean Arterial Pressure ([1]; 10 mg/kg cumulatively over the course of 90 minutes)
1 | 27 nM | CCc1sc(C(=O)N[C@@H]2[C@@H](N)CCCC2(F)F)cc1-c1cnn2cc(Cl)cnc12 [Example 4, N-[(1R,6S)-6-Amino-2,2-difluorocyclohexyl]-4-(6-chloropyrazolo[1,5-a]pyrimidin-3-yl)-5-ethylthiophene-2-carboxamide] | 25% | –
2 | 73 nM | CCc1sc(C(=O)N[C@@H]2[C@@H](N)CCCC2(F)F)cc1-c1cnn2cc(C(F)(F)F)cnc12 [Example 6, N-[(1R,6S)-6-Amino-2,2-difluorocyclohexyl]-5-ethyl-4-[6-(trifluoromethyl)pyrazolo[1,5-a]pyrimindin-3-yl]thiophene-2-carboxamide] | – | –
3 | 3 nM | Cc1sc(C(=O)N[C@@H]2[C@H](N)CCCC2(F)F)cc1-c1cnn2cc(OC(F)F)cnc12 [Example 9, N-[(1R,6R)-6-Amino-2,2-difluorocyclohexyl]-4-[6-(difluoromethoxy)pyrazolo[1,5-a]pyrimidin-3-yl]-5-methylthiophene-2-carboxamide] | – | 89%
4 | 5 nM | Cc1sc(C(=O)N[C@@H]2[C@@H](N)CCCC2(F)F)cc1-c1cnn2cc(OC(F)F)cnc12 [Example 10, N-[(1R,6S)-6-amino-2,2-difluorocyclohexyl]-4-[6-(difluoromethoxy)pyrazolo[1,5-a]pyrimidin-3-yl]-5-methylthiophene-2-carboxamide] | – | –
5 | 2 nM | CCOc1cnc2c(-c3cc(C(=O)N[C@@H]4[C@H](N)CCCC4(F)F)sc3CC)cnn2c1 [Example 15, N-[(1R,6R)-6-amino-2,2-difluorocyclohexyl]-4-(6-ethoxypyrazolo[1,5-a]pyrimidin-3-yl)-5-ethylthiophene-2-carboxamide] | – | –
6 | 1 nM | Cc1sc(C(=O)N[C@@H]2CCCC[C@@H]2N)cc1-c1cnn2cc(-c3cnn(C)c3)cnc12 [reference compound] | – | –
